Source: US9267129B2, “Compositions and methods for conferring herbicide resistance” (BEN-GURION UNIVERSITY OF THE NEGEV RESEARCH AND DEVELOPMENT …, priority 2011, dated 2016)

Tested on: E. coli BUM1 carrying the mutant gene (pEp-mut)
Assay: Growth on M9 plates with SMM, bacteria carrying the mutant gene
Assay type: cell-based, Escherichia coli
Settings: 50 μM SMM, 48 hrs, 37° C.
Procedure: This strain also requires proline and thiamin, regardless of AHAS expression. Transformation of BUM1 cells was achieved using a standard heat shock protocol. BUM1 cells were grown in LB or in M9 minimal medium (7 mg/ml Na2HPO4; 3 mg/ml KH2PO4; 0.5 mg/ml NaCl; 1 mg/ml NH4Cl; 0.12 mg/ml MgSO4; 0.35 mg/ml thiamin HCl; 2 mg/ml glucose) supplemented with 200 μg/ml proline. Where appropriate, the M9 medium was supplemented with the BCAAs valine, leucine, and isoleucine (150 μg/ml of each) or with 50 μM SMM. BUM1 transformants were propagated and kept on LB medium supplemented with 100 μg/ml Ampicillin. For functional expression assays, the cells were washed and plated on M9 agar plates and incubated for 48 hrs at 37° C. […]
The expression vector pEp-empty, an empty plasmid that retains the native ilvEp promoter and ATG start codon, was created by amplification of pAH29 plasmid with the pAH29-empty primer set, and included BamHI and SalI restriction sites for future fusion with the algal genes. Three forms of PiAHAS genes were used for this experiment: PiAHAS full open reading frame (ORF), truncated PiAHAS without the estimated chloroplast targeting peptide (from Serine91), and PimAHAS containing the point mutation (W605S). […] The plates were incubated for 48 hrs (FIG. 3) and bacterial growth was determined. […]

## COC(=O)c1ccccc1S(=O)(=O)NC(=O)Nc1nc(C)cc(C)n1 [SMM, sulfometuron methyl]
  bacterial growth in presence of SMM: not affected
